# Assay results reported in patent US12234224B2, “Pyrimidine and pyridine amine compounds and usage thereof in disease treatment” (Epigen Biosciences, Inc., priority 2021, dated 2025).
# pIC50: −log10 of the molar value.
# Molecular target: T1, Recombinant human p70S6K kinase (Homo sapiens, UniProt P23443)
# T1 construct: purchased ThermoFisher Scientific PV3815
# Experiment: S6K Enzymatic Inhibition Assay (HotSpot kinase assay; called S6K binding assay in Table 2)
# Type: biochemical
# Conditions: IC50 class
# Experimental: Enzymatic activity was determined using a commercial HotSpot kinase assay. Recombinant human p70S6K kinase was purchased from ThermoFisher Scientific (cat #PV3815). The substrate S6K/RSK2 peptide 2 was synthesized at Genscript [Piscataway, NJ]. In brief, the substrate was prepared in the reaction buffer [20 mM Hepes (pH 7.5), 10 mM MgCl2, 1 mM EGTA, 0.02% Brij35, 0.02 mg/mL BSA, 0.1 mM Na3VO4, 2 mM DTT, 1% DMSO]. Testing compounds were dissolved in 100% DMSO and a serial dilution was conducted in DMSO. The kinase at final concentration of 3 nM was added into the substrate solution and gently mixed. Test compounds were delivered at the appropriate concentrations into the kinase reaction mixture by Echo550, and incubated for 20 minutes at room temperature. ^33P-ATP (Specific activity 10 μCi/μL) was added into the reaction mixture to initiate the reaction. Assay plates were incubated for 2 hours at room temperature. The radioactivity was detected by filter-binding method. Kinase activity data is expressed as the percent remaining kinase activity in test samples compared to vehicle (DMSO) reactions. IC50 curves were plotted and IC50 values were calculated using the GraphPad Prism 4 program based on a sigmoidal dose-response equation.
# T1 sequence (P23443 whole entry): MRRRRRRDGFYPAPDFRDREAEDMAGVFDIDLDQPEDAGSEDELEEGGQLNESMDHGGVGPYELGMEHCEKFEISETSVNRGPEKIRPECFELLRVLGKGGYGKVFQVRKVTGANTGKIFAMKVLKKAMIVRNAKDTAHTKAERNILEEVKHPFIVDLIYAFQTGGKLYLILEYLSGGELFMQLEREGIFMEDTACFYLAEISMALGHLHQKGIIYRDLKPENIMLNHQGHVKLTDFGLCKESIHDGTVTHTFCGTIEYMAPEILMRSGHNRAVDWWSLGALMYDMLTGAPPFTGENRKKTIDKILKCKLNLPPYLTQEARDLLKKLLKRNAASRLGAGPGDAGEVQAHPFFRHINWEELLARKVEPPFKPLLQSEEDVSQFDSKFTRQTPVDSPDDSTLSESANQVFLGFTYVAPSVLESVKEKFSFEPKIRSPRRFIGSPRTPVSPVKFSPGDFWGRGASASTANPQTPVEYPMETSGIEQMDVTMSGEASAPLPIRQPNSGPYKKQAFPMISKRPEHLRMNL
row,Compound,pIC50
1,"CS(=O)(=O)c1ccc(-c2c(N)ncnc2-c2cnn(Cc3ccc(C(F)(F)F)cc3)c2)cc1 [Example 26, 5-[p-(Methylsulfonyl)phenyl]-6-(1-{[p-(trifluoromethyl)phenyl]methyl}-1H-pyrazol-4-yl)-4-pyrimidinylamine]",5.00 to 6.30
2,"COc1cc(-c2c(N)ncnc2-c2cnn(Cc3ccc(C(F)(F)F)cc3)c2)ccc1Cl [Example 29, 5-(4-Chloro-3-methoxyphenyl)-6-(1-{[p-(trifluoromethyl)phenyl]methyl}-1H-pyrazol-4-yl)-4-pyrimidinylamine]",5.00 to 6.30
3,"Nc1ncnc(-c2cnn(Cc3ccc(F)cc3)c2)c1-c1ccc(Cl)cc1 [Example 18, 5-(p-Chlorophenyl)-6-{1-[(p-fluorophenyl)methyl]-1H-pyrazol-4-yl}-4-pyrimidinylamine]",> 7.30
